Results taken from patent publication US20100184852A1, “ORGANIC COMPOUNDS FOR TREATMENT OF DISORDERS CONNECTED TO IMPAIRED NEUROTRANSMISSION” (priority 2006, published 2010).

Experiments:
[1] = molecular target: T1, Monoamine oxidase A (MAO-A) (Homo sapiens, UniProt P21397); experiment: Monoaminooxidase A inhibition (H2O2/vanillic acid/HRP readout); format: biochemical; settings: substrate p-tyramine 0.5 mM; +/− s.e.m.; read-out: IC50 [μM] for Inhibition of MAO-A
T1 sequence (P21397 1-527): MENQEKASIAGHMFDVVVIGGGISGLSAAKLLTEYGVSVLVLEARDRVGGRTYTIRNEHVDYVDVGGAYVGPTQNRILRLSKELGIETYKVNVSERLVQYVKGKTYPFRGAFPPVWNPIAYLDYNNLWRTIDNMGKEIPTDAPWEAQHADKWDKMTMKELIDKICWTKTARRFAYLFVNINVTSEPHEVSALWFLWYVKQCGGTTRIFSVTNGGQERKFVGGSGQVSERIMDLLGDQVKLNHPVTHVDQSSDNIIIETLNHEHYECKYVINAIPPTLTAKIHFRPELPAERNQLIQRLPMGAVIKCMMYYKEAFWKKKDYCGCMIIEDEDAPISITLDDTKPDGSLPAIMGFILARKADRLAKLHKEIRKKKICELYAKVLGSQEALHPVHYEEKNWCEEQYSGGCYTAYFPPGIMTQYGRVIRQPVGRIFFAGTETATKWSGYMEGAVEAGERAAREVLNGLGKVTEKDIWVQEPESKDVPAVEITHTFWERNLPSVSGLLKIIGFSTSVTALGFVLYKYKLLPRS
Procedure: (§1) The organic amines p-tyramine or benzylamine were used as substrates for the Monoamine oxidase A (MAO-A) and B (MAO-B) enzymes respectively. The H2O2 produced by this reaction was quantified by reaction with vanillic acid, catalysed by horse radish peroxidase (HRP).
(§2) The reactions were carried out in polystyrene microtitre plates. The MAO enzymes (final concentration 2 U/ml) were mixed with either p-tyramine (Sigma, final concentration 0.5 mM) or benzylamine (Sigma, final concentration 0.5 mM) as appropriate and the chromogenic solution (containing vanillic acid (Fluka), 4-aminoantipyrine (Fluka) and horse radish peroxidase (Sigma), final concentrations 0.25 mM, 0.125 mM and 1 U/ml respectively) in 0.2 M potassium phosphate buffer pH 7.6. The reactions were followed in a microtitre plate absorbance reader eg Spectramax M5 (Molecular Devices Corporation). Absorbance readings at 495 nm were taken every 15 seconds for 40 minutes and the initial reaction velocities calculated by linear regression using SOFTmaxPro (Molecular Devices Corporation).
(§3) The effect of ligustilide, 3-butylphthalide, senkyunolide C and cnidilide on the monoamine oxidase enzymes was determined by their inclusion in the assay at a range of concentrations between 0.03 and 100 μM for 10 minutes prior to and during the incubation with substrate. To determine the effect of the compounds on the HRP catalyzed portion of the reaction, the MAO enzyme was replaced by H2O2 (Molecular Probes, final concentration 0.2 mM). The reactions containing MAO-A and MAO-B were both inhibited by […] according to formula I in a dose dependent manner, whilst the control reaction, was unaffected. The measured IC50 values for inhibition of monoamine oxidase activity by ligustilide, 3-butylphthalide, senkyunolide C and enidilide, respectively, are shown in Table 3.

[2] = molecular target: T2, human serotonin re-uptake transporter (hSERT) (Homo sapiens, UniProt P31645); experiment: Serotonin uptake inhibition in HEK-293 cells expressing hSERT; format: cell-based; settings: transfected HEK-293 cells; 20 nM (3H) serotonin, 30 minutes; average +/− s.e.m.; read-out: IC50 for tritiated serotonin uptake
T2 construct: host or cells: HEK-293
T2 sequence (P31645 whole entry): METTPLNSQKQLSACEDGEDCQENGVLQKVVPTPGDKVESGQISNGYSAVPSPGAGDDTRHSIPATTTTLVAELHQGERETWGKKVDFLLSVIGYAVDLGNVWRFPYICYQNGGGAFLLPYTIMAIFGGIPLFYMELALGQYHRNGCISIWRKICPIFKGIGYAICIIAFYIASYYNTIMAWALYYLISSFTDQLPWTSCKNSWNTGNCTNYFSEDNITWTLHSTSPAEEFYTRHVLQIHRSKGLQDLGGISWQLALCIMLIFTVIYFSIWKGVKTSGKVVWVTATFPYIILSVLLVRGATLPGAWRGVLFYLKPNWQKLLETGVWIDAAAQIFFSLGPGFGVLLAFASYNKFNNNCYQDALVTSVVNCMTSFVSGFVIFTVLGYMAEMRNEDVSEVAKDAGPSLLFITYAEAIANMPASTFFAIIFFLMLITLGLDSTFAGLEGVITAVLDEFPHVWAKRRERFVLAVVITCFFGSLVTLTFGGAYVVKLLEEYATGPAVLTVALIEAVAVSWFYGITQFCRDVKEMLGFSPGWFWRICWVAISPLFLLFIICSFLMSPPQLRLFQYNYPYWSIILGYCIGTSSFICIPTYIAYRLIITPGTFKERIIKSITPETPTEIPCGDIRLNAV
Procedure: HEK-293 cells stably expressing the human serotonin re-uptake transporter (hSERT) were obtained from R. Blakely, Vanderbilt University, USA. The cells were routinely grown in Dulbeco's Modified Eagles Medium, purchased from Bioconcept, Allschwil, Switzerland containing 10% fetal calf serum, penicillin, streptomycin, L-glutamine and the antibiotic G418 and passaged by trypsinisation. One day prior to the assay cells were seeded in the above mentioned medium. Immediately prior to the assay the medium was replaced by Krebs Ringers bicarbonate buffer, purchased from Sigma Chemicals Ltd., supplemented with 35 μM pargyline, 2.2 mM CaCl2, 1 mM ascorbic acid and 5 mM N-2-hydroxyethylpiperazine-N′-2-ethanesulfonic acid (buffer called “Hepes”). Serotonin uptake into the cells was determined by addition of radio-labeled (3H) serotonin (Amersham Biosciences GE Healthcare, Slough, UK) to a concentration of 20 nM, and incubation for 30 minutes at room temperature. Following removal of unincorporated label by gentle washing three times with the above buffer, incorporated serotonin was quantified by liquid scintillation counting.
The effect of the compounds of formula I on the serotonin uptake was determined by its inclusion in the assay at a range of concentrations between 0.03 and 100 μM for 10 minutes prior to and during the addition of (3H) serotonin/citalopram. Serotonin uptake via the transporter was inhibited by ligustilide, 3-butylphthalide, senkyunolide A, senkyunolide C, senkyunolide B, and cnidilide, respectively, in a dose dependent manner, with IC50 values as shown in Table 2.

[3] = molecular target: T3, Monoamine oxidase B (MAO-B) (Homo sapiens, UniProt P27338); experiment: Monoaminooxidase B inhibition (H2O2/vanillic acid/HRP readout); format: biochemical; settings: substrate benzylamine 0.5 mM; +/− s.e.m.; read-out: IC50 [μM] for Inhibition of MAO-B
T3 sequence (P27338 1-520): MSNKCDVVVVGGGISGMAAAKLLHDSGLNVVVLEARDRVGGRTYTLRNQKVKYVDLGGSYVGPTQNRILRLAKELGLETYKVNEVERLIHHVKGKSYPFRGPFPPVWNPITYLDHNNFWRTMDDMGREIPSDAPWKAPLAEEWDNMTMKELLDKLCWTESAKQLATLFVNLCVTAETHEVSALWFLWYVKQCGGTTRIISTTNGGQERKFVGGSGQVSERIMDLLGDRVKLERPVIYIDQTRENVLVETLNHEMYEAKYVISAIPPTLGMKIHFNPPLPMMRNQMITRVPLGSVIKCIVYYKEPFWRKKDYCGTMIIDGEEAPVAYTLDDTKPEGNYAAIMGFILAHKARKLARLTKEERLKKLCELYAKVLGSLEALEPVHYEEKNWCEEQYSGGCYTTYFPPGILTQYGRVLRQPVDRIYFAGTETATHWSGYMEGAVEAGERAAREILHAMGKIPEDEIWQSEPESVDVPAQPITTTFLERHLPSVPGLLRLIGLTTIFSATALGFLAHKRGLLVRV
Procedure: as §1, §2, §3

mice = experiment: Marble burying test; format: in vivo, mouse; settings: 10 mg/kg p.o., −24, −5, −1 h
Procedure: A celery seed oil extract rich in phthalides was tested in the marble burying test. A crude extract from celery seed oil (Apium graveolens) obtained by supercritical CO2 fluid extraction of the seed was bought from Guanzhou Honsea Sunshine Bio Science & Technology, Guangzhou, 510620, Peopole's Republic of China. This extract (66.15 g) was distilled for about 2 hours in a ca. 30 cm Kugelrohr at a temperature of 125° C., under a pressure of 0.02 mbar. The distillate contained 18.12% butylphthalide, 0.87% butylidenphthalide, 35.37% senkyanolide, 20.99% sedanolide, 2.23% C16-fatty acid and 3.14% oleic acid, based on the total weight of the celery seed oil extract.
The marble burying test was performed in Type II cages (16×22 cm), which were filled with normal rodent bedding material, up to a depth of 4 cm, and the bedding was flattened gently by hand to ensure an even surface. […]
At the start of the test, mice were individually placed into the test cages and left to explore for 30 min. At the end of the test, the mice were removed from the cages and the number of marbles which have been buried (i.e. at least ⅔ covered with bedding) were counted. […]
Celery seed oil extract was evaluated after sub-chronic oral administration at 50, 100, 200, 300 mg/kg with fluoxetine at 10 mg/kg as reference substance and corn oil as vehicle. […]

Row | Compound | IC50 [1] [µM] | IC50 [2] [µM] | IC50 [3] [µM] | % MARBLES BURIED (mice) [%]
1 | CCCC[C@@H]1OC(=O)[C@@H]2C=CCC[C@H]12 [Cnidilide] | > 100 | 40.5 | 109 | –
2 | CNCCC(Oc1ccc(C(F)(F)F)cc1)c1ccccc1 (stereo not drawn) [Fluoxetine] | – | – | – | −78
3 | CCCC[C@@H]1OC(=O)C2=C1CCC=C2 [Senkyunolide A] | – | 32.5 | – | –
4 | CCC/C=C1\OC(=O)c2c(O)cccc21 [Senkyunolide B] | – | 75 | – | –
5 | CCC/C=C1\OC(=O)c2ccc(O)cc21 [Senkyunolide C] | 2.72 | 31.4 | 2.14 | –
